From US12453735B2, “Treating cancer with a CCK receptor inhibitor and an immune checkpoint inhibitor” (GEORGETOWN UNIVERSITY, priority 2017, dated 2025)
“Also recorded” adds a separate entry of the source.

Columns and labels:
[1] = tested on: Panc02 cells; assay: Orthotopic Panc02 pancreatic tumors in immune competent C57BL/6 mice; type: in vivo, mouse
Source text: (§1) Animal Models—Three different murine models were used in this investigation: 1) severe combined immune deficiency (B6.CB17-Prkdc^scid/SzJ; SCID) mice to study the role of CCKR blockade on orthotopic cancer growth and metastasis independent of immune cells, 2) immune competent Pdx1-Cre/LSL-Kras^G12D transgenic mice for a pancreatic carcinogenesis model to study the role of CCKR blockade on the pancreatic stellate cells and immune cells of the pancreas, and 3) immune competent C57BL/6 mice to study the role of CCKR antagonist in combination with immune checkpoint antibodies on growth and survival of mice bearing syngeneic PDAC tumors. Institutional guidelines for care and use of laboratory animals were followed throughout the study in accordance with protocols approved by the Georgetown University Institutional Animal Use and Care Committee.
(§2) Four weeks after tumor inoculation mice were euthanized, tumors removed and weighed, and the number of metastases counted. TILs were evaluated in tumors of the C57BL/6 mice by immunohistochemistry and fibrosis assessed with Masson's trichrome stain.

[2] = tested on: Panc02 cells; assay: Orthotopic Panc02 pancreatic tumors in SCID mice; type: in vivo, mouse
Source text: as §1, §2

[3] = tested on: Panc02 cells; assay: Subcutaneous Panc02 tumors in C57BL/6 mice, CCKR antagonist and PD-1 antibody; type: in vivo, mouse; conditions: vs PBS; for tumor size / tumor volume: Panc02 in C57BL/6, L364,718 4 mg/kg tiw ip, PD-1 antibody 125 μg×3 injections
Experimental: (§3) Cells were cultured in DMEM: F12 media with 10% FBS. […] In the following series of experiments Panc02 cells (1×10^6 or 2×10^6) were injected either orthotopically or subcutaneously in animals.
(§4) Treatments—Two different CCK receptor antagonists were used in this investigation. […] The other CCK receptor antagonist used was proglumide which is an orally bioavailable nonselective antagonist that blocks both the CCK-A and CCK-B receptors. Proglumide (Tocris Bioscience) was administered in the drinking water at a concentration of 0.1 mg/mL, or approximately 30 mg/kg/d per mouse.
(§5) Two immune checkpoint blockade antibodies were used in this investigation. The antibody to the programmed cell death protein 1 (PD1-Ab) (Bio X cell, West Lebanon, NH) was administered intraperitoneally to mice at a dose of either 125 μg×3 injections or 200 μg every 3 days.
(§6) Another series of experiments was performed in C57BL/6 mice to evaluate the role of CCKR blockade in combination with immune checkpoint antibody therapy. Each series of experiments was performed using 40 mice with syngeneic murine tumors. […] The primary end point was tumor volume (1,000 mm^3) or mouse survival. Tumors were excised and examined histologically, and by immunohistochemistry, or by flow cytometry for immune cells.
(§7) Tumor sections were also stained with either CD3 antibodies (1:85; DAKO, Carpinteria, CA); CD8 antibodies (1:75; eBioscience, San Diego, CA); CD4 antibodies (1:225; eBioscience), or FoxP3 antibody (1:30; eBioscience) and immunoreactive cells counted manually.

[4] = tested on: pancreatic cancer tumor; conditions: immune deficient nude mouse, 2 mg/kg twice daily; cited from earlier work
[5] = tested on: Panc02 cells; assay: Survival and tumor immune cells of C57BL/6 mice bearing subcutaneous Panc02 tumors, CCKR antagonist and CTLA-4 antibody
Experimental: as §3, §4, §5, §6, §7

[6] = tested on: pancreatic primary tumor; conditions: immune competent mouse, 4 mg/kg three times weekly ip; cited from earlier work
[7] = tested on: Panc02 cells; conditions: 2×10^6 Panc02 cells, vs PBS
Experimental: as §3
(§8) Subcutaneous tumor volumes were measured with calipers weekly in animals bearing subcutaneous tumors using the formula Length×(width)^2×0.5.
as §4
Two immune checkpoint blockade antibodies were used in this investigation. […] The antibody to cytotoxic T-lymphocyte-associated antigen 4 (CTLA-4 Ab; Bio-X cell, West Lebanon, NH) was given at a dose of 200 μg every 3 days by intraperitoneal injections.
Another series of experiments was performed in C57BL/6 mice to evaluate the role of CCKR blockade in combination with immune checkpoint antibody therapy. Each series of experiments was performed using 40 mice with syngeneic murine tumors. […]
Comparisons were made by ANOVA and student's t-test. […] Survival was analyzed by Kaplan Meier analysis and differences by hazard ratios using Prism Software (GraphPad software, Inc., San Diego, CA). […]

[8] = biological target: T1, CCK-A receptor (Homo sapiens, UniProt P32238); conditions: cited from earlier work
T1 sequence (P32238 1-428): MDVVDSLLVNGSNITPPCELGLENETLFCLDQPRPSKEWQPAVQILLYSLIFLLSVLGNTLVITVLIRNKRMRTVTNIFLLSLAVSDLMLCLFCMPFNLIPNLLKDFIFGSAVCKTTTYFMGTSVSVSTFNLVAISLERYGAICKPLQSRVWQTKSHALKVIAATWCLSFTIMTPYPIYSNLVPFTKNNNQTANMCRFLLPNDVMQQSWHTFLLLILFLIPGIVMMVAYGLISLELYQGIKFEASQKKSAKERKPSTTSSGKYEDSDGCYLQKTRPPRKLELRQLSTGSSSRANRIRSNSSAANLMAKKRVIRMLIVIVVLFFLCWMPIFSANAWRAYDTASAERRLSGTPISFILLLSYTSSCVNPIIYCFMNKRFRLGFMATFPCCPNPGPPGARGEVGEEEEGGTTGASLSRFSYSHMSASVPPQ

[9] = cited from earlier work
[10] = tested on: mT3 cells
Experimental: The cell line is also syngeneic to C57BL/6 mice; and therefore, capable of being studied in immune competent mice.
as §8
Proglumide (Tocris Bioscience) was administered in the drinking water at a concentration of 0.1 mg/mL, or approximately 30 mg/kg/d per mouse.
The antibody to the programmed cell death protein 1 (PD1-Ab) (Bio X cell, West Lebanon, NH) was administered intraperitoneally to mice at a dose of either 125 μg×3 injections or 200 μg every 3 days.
In the 4th experiment, the mT3 cells (1×10^5) were injected and mice were treated with PBS, proglumide, the PD-1 antibody, or the combination of both compounds. […] The primary end point was tumor volume (1,000 mm^3) or mouse survival. Tumors were excised and examined histologically, and by immunohistochemistry, or by flow cytometry for immune cells.
Some tumors were stained with an antibody to α-SMA (Abeam; Ab124964 at 1:6000). Tumor sections were also stained with either CD3 antibodies (1:85; DAKO, Carpinteria, CA); CD8 antibodies (1:75; eBioscience, San Diego, CA); CD4 antibodies (1:225; eBioscience), or FoxP3 antibody (1:30; eBioscience) and immunoreactive cells counted manually.

[11] = biological target: T2, CCK-B receptor (Homo sapiens, UniProt P32239); conditions: cited from earlier work
T2 sequence (P32239 1-447): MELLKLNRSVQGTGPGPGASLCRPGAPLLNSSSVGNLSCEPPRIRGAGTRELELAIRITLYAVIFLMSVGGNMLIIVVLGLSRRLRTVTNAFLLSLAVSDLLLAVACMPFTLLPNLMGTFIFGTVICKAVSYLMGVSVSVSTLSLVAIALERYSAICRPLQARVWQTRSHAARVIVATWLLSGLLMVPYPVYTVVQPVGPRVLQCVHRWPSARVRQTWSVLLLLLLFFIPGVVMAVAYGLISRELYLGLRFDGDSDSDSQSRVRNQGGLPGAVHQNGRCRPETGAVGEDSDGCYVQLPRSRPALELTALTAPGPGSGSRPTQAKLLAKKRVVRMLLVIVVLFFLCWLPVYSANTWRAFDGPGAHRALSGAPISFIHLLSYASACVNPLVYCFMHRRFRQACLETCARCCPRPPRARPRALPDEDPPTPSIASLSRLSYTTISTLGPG

[12] = tested on: pancreas of Pdx1-Cre/LSL-Kras^G12D transgenic mouse; assay: Pancreatic carcinogenesis model, Pdx1-Cre/LSL-Kras^G12D transgenic mice; type: in vivo; conditions: proglumide in drinking water for 4 months
Source text: as §1
The second series of experiments was performed to analyze the role of CCKR antagonist monotherapy on the TILs of the pancreas microenvironment during pancreatic carcinogenesis using the Pdx1-Cre/LSL-Kras^G12D transgenic mouse. After the mice reached 3-4 months of age, when PanINs and fibrosis are established, mice were treated with either proglumide (in the drinking water) or untreated water. After 4 months of therapy, the pancreata were excised and compared to the pancreas of age-matched litter mates of mice on untreated water. […]

[13] = Panc02 tumors, immunohistochemistry

With `CN1C(=O)[C@@H](NC(=O)c2cc3ccccc3[nH]2)N=C(c2ccccc2)c2ccccc21` [L364,718, Devazepide] the metastases ([1]; C57BL/6 mice, orthotopic Panc02, 4 mg/kg three times a week ip) was “decreased metastases”, the primary tumor size ([1]; C57BL/6 mice, orthotopic Panc02, 4 mg/kg three times a week ip, vs PBS) was “did not alter the primary tumor size” and the “CD3+ lymphocytes in tumor by immunohistochemistry” value ([1]; orthotopic Panc02 tumors, C57BL/6 mice, vs PBS) was “significant increase in CD3+ lymphocytes”. For the same compound, the primary tumor weight ([2]; orthotopic 10^6 Panc02 cells, 4 mg/kg three times a week ip, four weeks, vs PBS) was “significantly reduced the primary tumor weight”, the metastases ([2]; orthotopic Panc02, 4 mg/kg three times a week ip, 75% of untreated SCID mice had metastases) was “no metastases” and the “tumor size / tumor volume” value [3] was “did not significantly decrease the tumor size”. The “tumor size / tumor volume” value ([3]; listed as L-364,718) was “not significantly smaller”, the “CD4+ cells in tumor (immunohistochemistry)” value ([3]; Panc02 tumors) was “increased” and the “CD8+ cells in tumor (immunohistochemistry)” value ([3]; Panc02 tumors) was “increased”. The “pancreatic cancer tumor size” value [4] was “significant reduction in pancreatic cancer tumor size”, the “average CD4+ cell numbers in tumor” value [5, 13] was “increased” and the “average CD8+ cell numbers in tumor” value [5, 13] was “increased”. The “mice still alive at day 50” value ([5]; subcutaneous Panc02, C57BL/6, all PBS controls had died by day 50) was 42%, the “inhibition of pancreatic primary tumor growth” value [6] was “insufficient dose, by itself, to inhibit pancreatic primary tumor growth” and the number of metastases [6] was “did decrease the number of metastases”.
In the case of `CCCN(CCC)C(=O)C(CCC(=O)O)NC(=O)c1ccccc1` (stereo not shown) [proglumide], the “fibrosis of tumor microenvironment (Masson's trichrome stain)” value ([1]; orthotopic Panc02 tumors, vs PBS/vehicle) is listed as “marked decreased fibrosis”, the prolonged life [7] is listed as 5 days and the “antagonism at the CCK-A receptor” value [8] is listed as “weaker nonselective CCK antagonist”. For the same compound, the water solubility [9] was “water soluble”, the “survived longer than PBS control mice” value ([10]; mT3 pancreatic cancers, average) was 12 days and the “number of Foxp3+ cells (Tregs)” value ([10]; mT3 tumors, vs PBS) was “decreased”. For the same compound, the “tumor-associated fibrosis by Masson's trichrome stain” value ([10]; mT3 tumors, vs PBS) was “noticeably less”, the “α-SMA immunoreactivity (activated fibroblasts)” value ([10]; mT3 tumors, vs PBS) was “somewhat decreased with proglumide, but this change was not statistically significant” and the “quantitative analysis of intratumoral fibrosis” value ([10]; mT3 tumors, vs PBS controls and PD-1 monotherapy, p<0.01) was “significantly less fibrosis”. The “growth of mT3 tumors / tumor size” value ([10]; proglumide 0.1 mg/mL drinking water, PD-1 antibody 200 μg every three days, vs PBS) was “significantly slowed tumor growth; also recorded: significantly slower”, the “antagonism at the CCK-B receptor” value [11] was “inhibitory properties at both the CCK-A and CCK-B receptor types” and the “fibrosis of the pancreas microenvironment (trichrome stain)” value ([12]; vs age-matched controls) was “significantly diminished fibrosis; also recorded: significantly reversed fibrosis”. For the same compound, the “CD3+ cells in mouse pancreas” value ([12]; vs untreated water) was “significant increase in the CD3+ cells”.
